In patent US20230279025A1, “KRAS G12D INHIBITORS” (Mirati Therapeutics, Inc., priority 2020, published 2023):
Where a name gives a salt, the structure may show the parent alone.

How the values were obtained:
[1] = biological target: T1, KRas G12D (Homo sapiens (Human), UniProt P01116, G12D); experiment: KRas G12D Surface Plasmon Resonance (SPR) Binding Assay; settings: Biacore T200, immobilized biotinylated KRAS protein, 1:1 binding model
Target sequence in this assay (P01116-2 other isoform, or with tags, fused parts or gaps G12D): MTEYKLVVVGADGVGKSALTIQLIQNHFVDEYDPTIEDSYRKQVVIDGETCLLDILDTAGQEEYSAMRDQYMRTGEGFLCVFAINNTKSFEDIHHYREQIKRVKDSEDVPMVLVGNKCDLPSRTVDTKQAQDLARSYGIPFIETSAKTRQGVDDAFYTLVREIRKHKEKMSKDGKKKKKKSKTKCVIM

[2] = biological target: T1, KRas G12D; experiment: KRas G12D Binding Assay (TR-FRET displacement of Cy5 labelled tracer); settings: GDP-loaded KRAS G12D (amino acids 1:169), 60 minute incubation at 22° C.
Method: After a 60 minute incubation at 22° C., the reaction was measured using a PerkinElmer EnVision multimode plate reader via TR-FRET dual wavelength detection, and the percent of control (POC) calculated using a ratiometric emission factor. […] The POC values were fit to a 4-parameter logistic curve and the IC50 value was determined as the concentration where the curve crosses 50 POC.
ND stands for “not determined.”
Target sequence in this assay (P01116 other isoform, or with tags, fused parts or gaps G12D): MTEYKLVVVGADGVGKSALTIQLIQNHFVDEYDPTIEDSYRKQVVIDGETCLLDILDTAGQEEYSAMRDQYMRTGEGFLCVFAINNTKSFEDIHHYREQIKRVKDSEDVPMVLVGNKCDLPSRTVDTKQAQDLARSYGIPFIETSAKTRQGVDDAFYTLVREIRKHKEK

## Oc1cc(-c2ncc3c(N4C[C@H]5CC[C@@H](C4)N5)nc(N4CC(O)C4)nc3c2F)c2ccccc2c1 [Example 37, 1-(4-((1R,5S)-3,8-diazabicyclo[3.2.1]octan-3-yl)-8-fluoro-7-(3-hydroxynaphthalen-1-yl)pyrido[4,3-d]pyrimidin-2-yl)azetidin-3-ol bis(2,2,2-trifluoroacetate)]
[1]
  Kd: 0.494 µM
[2]
  IC50: 0.405 µM

## Fc1c(-c2cccc3cccc(Cl)c23)ncc2c(N3C[C@H]4CC[C@@H](C3)N4)nc(OC3CCc4cn[nH]c4C3)nc12 (stereo partly drawn) [Example 143, 4-((1R,5S)-3,8-diazabicyclo[3.2.1]octan-3-yl)-7-(8-chloronaphthalen-1-yl)-8-fluoro-2-((4,5,6,7-tetrahydro-1H-indazol-6-yl)oxy)pyrido[4,3-d]pyrimidine]
[1]
  Kd: 14.9 µM
[2]
  IC50: 4.56 µM

## CO[C@@H]1CN2CCC[C@]2(COc2nc(N3C[C@H]4CC[C@@H](C3)N4)c3cnc(-c4cccc5cccc(Cl)c45)c(F)c3n2)C1 [Example 219, 4-((1R,5S)-3,8-diazabicyclo[3.2.1]octan-3-yl)-7-(8-chloronaphthalen-1-yl)-8-fluoro-2-((2-methoxytetrahydro-1H-pyrrolizin-7a(5H)-yl)methoxy)pyrido[4,3-d]pyrimidine bis-hydrochloride]
[1]
  Kd: 0.0081 µM
[2]
  IC50: 0.0081 µM

## Oc1cc(-c2ncc3c(N4C[C@H]5CC[C@@H](C4)N5)nc(OC4CCSCC4)nc3c2F)c2ccccc2c1 [Example 79, 4-(4-((1R,5S)-3,8-diazabicyclo[3.2.1]octan-3-yl)-8-fluoro-2-((tetrahydro-2H-thiopyran-4-yl)oxy)pyrido[4,3-d]pyrimidin-7-yl)naphthalen-2-ol]
[1]
  Kd: > 1000 µM
[2]
  IC50: 0.337 µM

## CCOC(=O)CCCOc1nc(N2C[C@H]3CC[C@@H](C2)N3)c2cnc(-c3cccc4cccc(Cl)c34)c(F)c2n1 [Example 319, Ethyl 4-((4-((1R,5S)-3,8-diazabicyclo[3.2.1]octan-3-yl)-7-(8-chloronaphthalen-1-yl)-8-fluoropyrido[4,3-d]pyrimidin-2-yl)oxy)butanoate]
[1]
  Kd: 256 µM
[2]
  IC50: > 10 µM

## Fc1c(-c2cccc3cccc(Cl)c23)ncc2c(N3C[C@H]4CC[C@@H](C3)N4)nc(OCC3COC3)nc12 [Example 53, 4-((1R,5S)-3,8-diazabicyclo[3.2.1]octan-3-yl)-7-(8-chloronaphthalen-1-yl)-8-fluoro-2-(oxetan-3-ylmethoxy)pyrido[4,3-d]pyrimidine]
[1]
  Kd: 4.37 µM
[2]
  IC50: 1.88 µM

## Fc1c(-c2cccc3cccc(Cl)c23)ncc2c(N3C[C@H]4CC[C@@H](C3)N4)nc(OCCn3cccn3)nc12 [Example 147, 2-(2-(1H-pyrazol-1-yl)ethoxy)-4-((1R,5S)-3,8-diazabicyclo[3.2.1]octan-3-yl)-7-(8-chloronaphthalen-1-yl)-8-fluoropyrido[4,3-d]pyrimidine]
[1]
  Kd: 18.8 µM
[2]
  IC50: 5.88 µM

## Cn1cnc(COc2nc(N3C[C@H]4CC[C@@H](C3)N4)c3cnc(-c4cc(O)cc5ccccc45)c(F)c3n2)c1 [Example 9, 4-(4-((1R,5S)-3,8-diazabicyclo[3.2.1]octan-3-yl)-8-fluoro-2-((1-methyl-1H-imidazol-4-yl)methoxy)pyrido[4,3-d]pyrimidin-7-yl)naphthalen-2-ol]
[1]
  Kd: 0.259 µM
[2]
  IC50: 0.821 µM

## COc1nc(N2C[C@H]3CC[C@@H](C2)N3)c2cnc(-c3cc(O)cc4ccccc34)c(F)c2n1 [Example 105, 4-(4-((I R,5S)-3,8-diazabicyclo[3.2.1]octan-3-yl)-8-fluoro-2-methoxypyrido[4,3-d]pyrimidin-7-yl)naphthalen-2-ol]
[1]
  Kd: 2.26 µM
[2]
  IC50: 0.867 µM

## Fc1c(-c2cccc3cccc(Cl)c23)ncc2c(N3C[C@H]4CC[C@@H](C3)N4)nc(OCCc3cccnc3)nc12 [Example 113, 4-((1R,5S)-3,8-diazabicyclo[3.2.1]octan-3-yl)-7-(8-chloronaphthalen-1-yl)-8-fluoro-2-(2-(pyridin-3-yl)ethoxy)pyrido[4,3-d]pyrimidine]
[1]
  Kd: 2.5 µM
[2]
  IC50: 2.87 µM

## CN1CCC[C@H]1COc1nc(N2CC3CCC(C)(C2)N3)c2cnc(-c3cc(O)cc4ccccc34)c(F)c2n1 (stereo partly drawn) [Example 156, 4-(8-fluoro-4-(1-methyl-3,8-diazabicyclo[3.2.1]octan-3-yl)-2-(((S)-1-methylpyrrolidin-2-yl)methoxy)pyrido[4,3-d]pyrimidin-7-yl)naphthalen-2-ol bis(2,2,2-trifluoroacetate)]
[1]
  Kd: 500 µM
[2]
  IC50: 0.0091 µM

## Cn1ccnc1CCOc1nc(N2C[C@H]3CC[C@@H](C2)N3)c2cnc(-c3cccc4ccccc34)c(F)c2n1 [Example 94, 4-((1R,5S)-3,8-diazabicyclo[3.2.1]octan-3-yl)-8-fluoro-2-(2-(1-methyl-1H-imidazol-2-yl)ethoxy)-7-(naphthalen-1-yl)pyrido[4,3-d]pyrimidine]
[1]
  Kd: 7.46 µM
[2]
  IC50: 3.65 µM

## O=C(O)CCOc1nc(N2C[C@H]3CC[C@@H](C2)N3)c2cnc(-c3cccc4cccc(Cl)c34)c(F)c2n1 [Example 61, 3-((4-((1R,5S)-3,8-diazabicyclo[3.2.1]octan-3-yl)-7-(8-chloronaphthalen-1-yl)-8-fluoropyrido[4,3-d]pyrimidin-2-yl)oxy)propanoic acid compound with 2,2,2-trifluoroacetaldehyde]
[1]
  Kd: 0.116 µM
[2]
  IC50: 4.08 µM

## Oc1cc(-c2ncc3c(N4C[C@H]5CC[C@@H](C4)N5)nc(OCCC(F)(F)F)nc3c2F)c2ccccc2c1 [Example 81, 4-(4-((1R,5S)-3,8-diazabicyclo[3.2.1]octan-3-yl)-8-fluoro-2-(3,3,3-trifluoropropoxy)pyrido[4,3-d]pyrimidin-7-yl)naphthalen-2-ol]
[1]
  Kd: 0.321 µM
[2]
  IC50: 0.153 µM

## CC1(N)CN(c2nc(N3C[C@H]4CC[C@@H](C3)N4)c3cnc(-c4cc(O)cc5ccccc45)c(F)c3n2)C1 [Example 124, 4-(2-(3-amino-3-methylazetidin-1-yl)-4-((1R,5S)-3,8-diazabicyclo[3.2.1]octan-3-yl)-8-fluoropyrido[4,3-d]pyrimidin-7-yl)naphthalen-2-ol]
[1]
  Kd: 0.0227 µM
[2]
  IC50: 0.0086 µM

## Oc1cc(-c2ncc3c(N4C[C@H]5CC[C@@H](C4)N5)nc(OC4CCOCC4)nc3c2F)c2ccccc2c1 [Example 72, 4-(4-((1R,5S)-3,8-diazabicyclo[3.2.1]octan-3-yl)-8-fluoro-2-((tetrahydro-2H-pyran-4-yl)oxy)pyrido[4,3-d]pyrimidin-7-yl)naphthalen-2-ol]
[1]
  Kd: 0.507 µM
[2]
  IC50: 0.513 µM

## Oc1cc(-c2ncc3c(N4C[C@H]5CC[C@@H](C4)N5)nc(OCC4(C(F)(F)F)CCCC4)nc3c2F)c2ccccc2c1 [Example 46, 4-(4-((1R,5S)-3,8-diazabicyclo[3.2.1]octan-3-yl)-8-fluoro-2-((1-(trifluoromethyl)cyclopentyl)methoxy)pyrido[4,3-d]pyrimidin-7-yl)naphthalen-2-ol]
[1]
  Kd: 0.798 µM
[2]
  IC50: 0.721 µM

## Cc1cccc(F)c1-c1ncc2c(N3C[C@H]4CC[C@@H](C3)N4)nc(OCCc3nccn3C)nc2c1F [Example 316, 4-((1R,5S)-3,8-diazabicyclo[3.2.1]octan-3-yl)-8-fluoro-7-(2-fluoro-6-methylphenyl)-2-(2-(1-methyl-1H-imidazol-2-yl)ethoxy)pyrido[4,3-d]pyrimidine]
[1]
  Kd: 157 µM
[2]
  IC50: > 10 µM

## OCCOc1nc(N2C[C@H]3CC[C@@H](C2)N3)c2cnc(-c3cc(O)cc4ccccc34)c(F)c2n1 [Example 69, 4-(4-((1R,5S)-3,8-diazabicyclo[3.2.1]octan-3-yl)-8-fluoro-2-(2-hydroxyethoxy)pyrido[4,3-d]pyrimidin-7-yl)naphthalen-2-ol]
[1]
  Kd: 0.522 µM
[2]
  IC50: 0.53 µM

## Oc1cc(-c2ncc3c(N4C[C@H]5CC[C@@H](C4)N5)nc(OC4CCC(F)(F)CC4)nc3c2F)c2ccccc2c1 [Example 80, 4-(4-((1R,5S)-3,8-diazabicyclo[3.2.1]octan-3-yl)-2-((4,4-difluorocyclohexyl)oxy)-8-fluoropyrido[4,3-d]pyrimidin-7-yl)naphthalen-2-ol]
[1]
  Kd: > 500 µM
[2]
  IC50: 0.647 µM

## CN1CCC[C@H]1COc1nc(N2C[C@H]3CC[C@@H](C2)N3)c2cnc(-c3cncc4cccc(Cl)c34)c(F)c2n1 [Example 151, 4-((1R,5S)-3,8-diazabicyclo[3.2.1]octan-3-yl)-7-(5-chloroisoquinolin-4-yl)-8-fluoro-2-(((S)-1-methylpyrrolidin-2-yl)methoxy)pyrido[4,3-d]pyrimidine]
[1]
  Kd: 0.448 µM
[2]
  IC50: 0.388 µM

## CC(C)N1CCC[C@H]1COc1nc(N2C[C@H]3CC[C@@H](C2)N3)c2cnc(-c3cccc4cccc(Cl)c34)c(F)c2n1 [Example 29, 4-((1R,5S)-3,8-diazabicyclo[3.2.1]octan-3-yl)-7-(8-chloronaphthalen-1-yl)-8-fluoro-2-(((S)-1-isopropylpyrrolidin-2-yl)methoxy)pyrido[4,3-d]pyrimidine]
[1]
  Kd: 0.17 µM
[2]
  IC50: 0.16 µM

## Oc1cc(-c2ncc3c(N4C[C@H]5CC[C@@H](C4)N5)nc(OCc4cccnc4)nc3c2F)c2ccccc2c1 [Example 99, 4-(4-((1R,5S)-3,8-diazabicyclo[3.2.1]octan-3-yl)-8-fluoro-2-(pyridin-3-ylmethoxy)pyrido[4,3-d]pyrimidin-7-yl)naphthalen-2-ol]
[1]
  Kd: 0.897 µM
[2]
  IC50: 0.624 µM

## Fc1c(-c2cccc3ccccc23)ncc2c(N3C[C@H]4CC[C@@H](C3)N4)nc(OC[C@@H]3CCCN3Cc3ccccc3)nc12 [Example 108, 2-(((S)-1-benzylpyrrolidin-2-yl)methoxy)-4-((1R,5S)-3,8-diazabicyclo[3.2.1]octan-3-yl)-8-fluoro-7-(naphthalen-1-yl)pyrido[4,3-d]pyrimidine]
[1]
  Kd: 63.5 µM
[2]
  IC50: 4.84 µM

## Oc1cc(-c2ncc3c(N4C[C@H]5CC[C@@H](C4)N5)nc(OCC(F)(F)C(F)F)nc3c2F)c2ccccc2c1 [Example 52, 4-(4-((1R,5S)-3,8-diazabicyclo[3.2.1]octan-3-yl)-8-fluoro-2-(2,2,3,3-tetrafluoropropoxy)pyrido[4,3-d]pyrimidin-7-yl)naphthalen-2-ol]
[1]
  Kd: 0.507 µM
[2]
  IC50: 0.318 µM
